Reference: patent US11786481B2, “Formulation and process for modulating wound healing” (BioMendics, LLC, priority 2015, dated 2023)

Tests used:
[1] = test system: skin (keratinocyte layer, dermis); assay: H&E staining of excised skin samples; format: in vivo; details: 5% (w/v)
Excerpt: Example 11: Excised skin samples treated with a control or with 5% (w/v) 4-hydroxy-4′-methoxytolan.

[2] = test system: full thickness excision wounds; assay: In vivo evaluation for wound healing: full thickness excision wounds on the dorsum of mice
Excerpt: Example 10: In Vivo Evaluation of the LCB's for Wound Healing: Twenty, 5-6 week old Balbc/J (stock #000651) male mice were transferred to Jackson Labs in vivo research laboratory in Sacramento, Calif. The mice were ear notched for identification and housed in individually and positively ventilated polycarbonate cages with HEPA filtered air. Bed-o-cob corn cob bedding was used and cages were changed every two weeks. The animal room is lighted entirely with artificial fluorescent lighting, with a controlled 12 h light/dark cycle. The normal temperature and relative humidity ranges in the animal rooms are 22 t 4° C. and 50 t 15%, respectively. The animal rooms were set to have 15 air exchanges per hour. Filtered tap water, acidified to a pH of 2.8 to 3.1, and rodent chow was provided ad libitum. Following a 5-7 days acclimation, mice were randomized by body weight into 2 cohorts of 10 mice each. On study day 0, mice were anesthetized and two full thickness excision wounds (˜6 mm) were made on the dorsum (backs) of mice. One of the wounds was covered using a semi-occlusive polyurethane dressing (Tegaderm™). Dressings covered the wounds for 5 consecutive (5) days from the day of wounding (d 0). The doses of 4-hydroxy-4′-methoxytolan were based on those that promoted lesion healing in mice in previous herpes virus studies. Wound measurements were made on day 5, 7, 9 and 11. Digital images of wounds were taken of each mouse. Test agents were a viscous paste and wounds were surrounded with a saddle glued in place to eliminate cross contamination and wound closure due to contraction. Therefore, changes in wound area are due to re-epithelization. During the five days all wounds are covered with glycerin (control) or glycerin and test agent. At day 5, test agents were removed and changes in wound area were measured (as area/area %) in an effort to gauge the persistence of the compounds in the wound site. By day 5, glycerin produced 26.1% wound closure, whereas 4-hydroxy-4′-methoxytolan (2.5%) closed produced 92.8% wound closure and 5% 4-hydroxy-4′-methoxytolan produced 91.4% wound closure. Prior to statistical analysis a test for Normality was run and a Z-score computed to confirm a normally distributed area for each wound on day 1 for all mice across groups, r^2=0.989. Statistics are computed based One-Way ANOVA's comparing changes in wound area on day 5. All mice tolerated the treatments and all weekly clinical observations report bright, alert, responsive, and hydrated mice.

[3] = 2.5% (w/v) topical in glycerin, day 0
[4] = 2.5% (w/v) topical in glycerin, day 5
[5] = 2.5% (w/v) topical in glycerin, day 7
[6] = 2.5% (w/v) topical in glycerin, day 9
[7] = 2.5% (w/v) topical in glycerin, day 11
[8] = 5% (w/v) topical in glycerin, day 0
[9] = 5% (w/v) topical in glycerin, day 5
[10] = 5% (w/v) topical in glycerin, day 7
[11] = 5% (w/v) topical in glycerin, day 9
[12] = 5% (w/v) topical in glycerin, day 11

Structure (SMILES): COc1ccc(C#Cc2ccc(O)cc2)cc1 [4-hydroxy-4′-methoxytolan]
- Keratinocyte proliferation ([1]; H&E staining): extensive keratinocyte proliferation
- Keratinocyte cell layers ([1]; control 1-2 cells thick): 7-8 cells thick
- Average Area [2, 3]: 2.07 cm^2
- Wound Area (%) Closed [2, 3]: 0%
- Average Area [2, 4]: 0.15 cm^2
- Wound Area (%) Closed [2, 4]: 92.8%
- Average Area [2, 5]: 0.04 cm^2
- Wound Area (%) Closed [2, 5]: 100%
- Average Area [2, 6]: 0.00 cm^2
- Wound Area (%) Closed [2, 6]: 100.0%
- Average Area [2, 7]: 0.00 cm^2
- Wound Area (%) Closed [2, 7]: 100.0%
- Average Area [2, 8]: 1.98 cm^2
- Wound Area (%) Closed [2, 8]: 0%
- Average Area [2, 9]: 0.17 cm^2
- Wound Area (%) Closed [2, 9]: 91.4%
- Average Area [2, 10]: 0.08 cm^2
- Wound Area (%) Closed [2, 10]: 100%
- Average Area [2, 11]: 0.00 cm^2
- Wound Area (%) Closed [2, 11]: 100.0%
- Average Area [2, 12]: 0.00 cm^2
- Wound Area (%) Closed [2, 12]: 100.0%
- Tolerability of treatment, weekly clinical observations ([2]; topical 2.5% and 5%, Balbc/J male mice): tolerated
